According to US11286268B1, “EIF4E-inhibiting compounds and methods” (EFFECTOR THERAPEUTICS, INC., priority 2019, dated 2022):

target: recombinant eIF4E (Homo sapiens (Human), UniProt P06730); assay: Fluorescence polarization competition assay for eIF4E binding potency; conditions: inhibition of eIF4E/EDA-m7GDP-ATTO-550 binding; calculated IC50 values, Table 4B; read-out: IC50
How it was run: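 Competitive displacement format: compounds compete with a fluorescent m7GDP tracer (20 nM) for 75 nM recombinant eIF4E. Incubation is 30 min at room temperature, protected from light, with 1% DMSO. Polarization read gives IC50 over eight 3-fold concentrations.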

Sequence of recombinant eIF4E (P06730 whole entry): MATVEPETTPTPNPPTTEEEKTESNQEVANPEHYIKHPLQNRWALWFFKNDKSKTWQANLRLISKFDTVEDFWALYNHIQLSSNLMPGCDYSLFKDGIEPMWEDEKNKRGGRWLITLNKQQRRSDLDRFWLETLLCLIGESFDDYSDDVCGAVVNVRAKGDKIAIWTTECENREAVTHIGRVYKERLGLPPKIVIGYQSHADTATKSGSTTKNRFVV

| IC50 [nM] | SMILES |
| --- | --- |
| 17.4 | CCN(c1ncc2nc(C)n(CC#Cc3ccc(Cl)cc3-c3ccnc4c(C(=O)NS(C)(=O)=O)csc34)c(=O)c2c1C#N)C1CCN([C@H]2C[C@H](OC(F)F)C2)CC1 [compound 1767] |
| 31.3 | CCN(c1ncc2nc(C)n(CC#Cc3ccc(Cl)cc3-c3ccnc4c(C(=O)NS(=O)(=O)C5COC5)csc34)c(=O)c2c1C#N)C1CCN([C@H]2C[C@H](OC(F)F)C2)CC1 [compound 1768] |
| 16.4 | CCN(c1ncc2nc(C)n(CC#Cc3ccc(Cl)cc3-c3ccnc4c(C(=O)NS(=O)(=O)c5ccncc5)csc34)c(=O)c2c1C#N)C1CCN([C@H]2C[C@H](OC(F)F)C2)CC1 [compound 1769] |
| 17.5 | CCN(c1ncc2nc(C)n(CC#Cc3ccc(Cl)cc3-c3ccnc4c(C(=O)NS(=O)(=O)c5cccnc5)csc34)c(=O)c2c1C#N)C1CCN([C@H]2C[C@H](OC(F)F)C2)CC1 [compound 1770] |
| 26.6 | CCN(c1ncc2nc(C)n(CC#Cc3ccc(Cl)cc3-c3ccnc4c(C(=O)NS(=O)(=O)c5ccccn5)csc34)c(=O)c2c1C#N)C1CCN([C@H]2C[C@H](OC(F)F)C2)CC1 [compound 1771] |
| 6.07 | Cc1nc2cnc(N(C)C3CCN([C@H]4C[C@@H](OC(F)(F)F)C4)CC3)c(C#N)c2c(=O)n1CC#Cc1ccc(Cl)cc1-c1ccnc2c(C(=O)NS(C)(=O)=O)csc12 [compound 1772] |
| 47.5 | Cc1nc2cnc(N(C)C3CCN([C@H]4C[C@@H](OC(F)(F)F)C4)CC3)c(C#N)c2c(=O)n1CC#Cc1ccc(Cl)cc1-c1ccnc2c(C(=O)NS(=O)(=O)c3ccncc3)csc12 [compound 1773] |
| 45 | Cc1nc2cnc(N(C)C3CCN([C@H]4C[C@@H](OC(F)(F)F)C4)CC3)c(C#N)c2c(=O)n1CC#Cc1ccc(Cl)cc1-c1ccnc2c(C(=O)NS(=O)(=O)c3cccnc3)csc12 [compound 1774] |
| 32.1 | CCN(c1ncc2nc(C)n(CC#Cc3ccc(Cl)cc3-c3ccnc4c(C(=O)O)csc34)c(=O)c2c1C#N)C1CCN([C@H]2C[C@@H](OC(F)(F)F)C2)CC1 [compound 1775] |
| 3.65 | CCN(c1ncc2nc(C)n(CC#Cc3ccc(Cl)cc3-c3ccnc4c(C(=O)NS(C)(=O)=O)csc34)c(=O)c2c1C#N)C1CCN([C@H]2C[C@@H](OC(F)(F)F)C2)CC1 [compound 1776] |
| 35.1 | CCN(c1ncc2nc(C)n(CC#Cc3ccc(Cl)cc3-c3ccnc4c(C(=O)NS(=O)(=O)c5ccncc5)csc34)c(=O)c2c1C#N)C1CCN([C@H]2C[C@@H](OC(F)(F)F)C2)CC1 [compound 1779] |
| 10.9 | CCN(c1ncc2nc(C)n(CC#Cc3ccc(Cl)cc3-c3ccnc4c(C(=O)NS(=O)(=O)c5cccnc5)csc34)c(=O)c2c1C#N)C1CCN([C@H]2C[C@@H](OC(F)(F)F)C2)CC1 [compound 1780] |
| 8.32 | CCN(c1ncc2nc(C)n(CC#Cc3ccc(Cl)cc3-c3ccnc4c(C(=O)NS(=O)(=O)c5ccccn5)csc34)c(=O)c2c1C#N)C1CCN([C@H]2C[C@@H](OC(F)(F)F)C2)CC1 [compound 1781] |
| 10.1 | Cc1nc2cnc(N(C)C3CCN([C@H]4C[C@H](F)C4)CC3)c(C#N)c2c(=O)n1CC#Cc1ccc(Cl)cc1-c1ccnc2c(C(=O)NS(=O)(=O)C3COC3)csc12 [compound 1791] |
| 9.24 | Cc1nc2cnc(N(C)C3CCN([C@H]4C[C@H](F)C4)CC3)c(C#N)c2c(=O)n1CC#Cc1ccc(Cl)cc1-c1ccnc2c(C(=O)NS(=O)(=O)c3ccncc3)csc12 [compound 1792] |

More lines, now with the values behind:

| SMILES | IC50 [nM] |
| --- | --- |
| Cc1nc2cnc(N(C)C3CCN(CC(F)(F)C(F)F)CC3)c(C#N)c2c(=O)n1CC#Cc1ccc(Cl)cc1-c1ccnc2c(C(=O)NS(=O)(=O)C3COC3)csc12 [compound 1704] | 6.54 |
| Cc1nc2cnc(N(C)C3CCN(CC(F)(F)C(F)F)CC3)c(C#N)c2c(=O)n1CC#Cc1ccc(Cl)cc1-c1ccnc2c(C(=O)NS(=O)(=O)c3ccncc3)csc12 [compound 1705] | 4.8 |
| Cc1nc2cnc(N(C)C3CCN(CC(F)(F)C(F)F)CC3)c(C#N)c2c(=O)n1CC#Cc1ccc(Cl)cc1-c1ccnc2c(C(=O)NS(=O)(=O)c3ccccn3)csc12 [compound 1706] | 12.1 |
| Cc1nc2cnc(N(C)C3CCN(CC(F)(F)C(F)F)CC3)c(C#N)c2c(=O)n1CC#Cc1ccc(Cl)cc1-c1ccnc2c(C(=O)NS(=O)(=O)c3cccnc3)csc12 [compound 1707] | 15.7 |
| CCN(c1ncc2nc(C)n(CC#Cc3ccc(Cl)cc3-c3ccnc4c(C(=O)NS(=O)(=O)c5ccncc5)csc34)c(=O)c2c1C#N)C1CCN(CC(F)(F)C(F)F)CC1 [compound 1708] | 16.2 |
| CCN(c1ncc2nc(C)n(CC#Cc3ccc(Cl)cc3-c3ccnc4c(C(=O)NS(=O)(=O)c5cccnc5)csc34)c(=O)c2c1C#N)C1CCN(CC(F)(F)C(F)F)CC1 [compound 1709] | 28.4 |
| Cc1nc2cnc(N(C)C3CCN(CCC(C)(F)F)CC3)c(C#N)c2c(=O)n1CC#Cc1ccc(Cl)cc1-c1ccnc2c(C(=O)NS(C)(=O)=O)csc12 [compound 1713] | 15.8 |
| Cc1nc2cnc(N(C)C3CCN(CC4(C(F)(F)F)CCO4)CC3)c(C#N)c2c(=O)n1CC#Cc1ccc(Cl)cc1-c1ccnc2c(C(=O)O)csc12 (centres unmarked) [compound 1717] | 13.4 |
| Cc1nc2cnc(N(C)C3CCN([C@H]4C[C@@H]4C(F)(F)F)CC3)c(C#N)c2c(=O)n1CC#Cc1ccc(Cl)cc1-c1ccnc2c(C(=O)O)csc12 [compound 1724] | 4.07 |
| Cc1nc2cnc(N(C)C3CCN([C@@H]4C[C@H]4C(F)(F)F)CC3)c(C#N)c2c(=O)n1CC#Cc1ccc(Cl)cc1-c1ccnc2c(C(=O)O)csc12 [compound 1727] | 3.84 |
| CCN(c1ncc2nc(C)n(CC#Cc3ccc(Cl)cc3-c3ccnc4c(C(=O)NS(=O)(=O)CC)csc34)c(=O)c2c1C#N)C1CCN(C2COC2)CC1 [compound 1733] | 8.11 |
| CCN(c1ncc2nc(C)n(CC#Cc3ccc(Cl)cc3-c3ccnc4c(C(=O)NS(=O)(=O)CC(F)(F)F)csc34)c(=O)c2c1C#N)C1CCN(C2COC2)CC1 [compound 1734] | 19.4 |
| CCN(c1ncc2nc(C)n(CC#Cc3ccc(Cl)cc3-c3ccnc4c(C(=O)NS(=O)(=O)CC#N)csc34)c(=O)c2c1C#N)C1CCN(C2COC2)CC1 [compound 1735] | 33.6 |
| CCN(c1ncc2nc(C)n(CC#Cc3ccc(Cl)cc3-c3ccnc4c(C(=O)NS(=O)(=O)CCC#N)csc34)c(=O)c2c1C#N)C1CCN(C2COC2)CC1 [compound 1736] | 12.6 |
| CCN(c1ncc2nc(C)n(CC#Cc3ccc(Cl)cc3-c3ccnc4c(C(=O)NS(=O)(=O)CC(C)(C)C#N)csc34)c(=O)c2c1C#N)C1CCN(C2COC2)CC1 [compound 1737] | 14.3 |
| CCN(c1ncc2nc(C)n(CC#Cc3ccc(Cl)cc3-c3ccnc4c(C(=O)NS(=O)(=O)Cc5ccccn5)csc34)c(=O)c2c1C#N)C1CCN(C2COC2)CC1 [compound 1738] | 25.5 |

| SMILES | IC50 [nM] |
| --- | --- |
| CCN(c1ncc2nc(C)n(CC#Cc3ccc(Cl)cc3-c3ccnc4c(C(=O)NS(=O)(=O)C5CC(F)(F)C5)csc34)c(=O)c2c1C#N)C1CCN(C2COC2)CC1 [compound 1739] | 33.3 |
| CCN(c1ncc2nc(C)n(CC#Cc3ccc(Cl)cc3-c3ccnc4c(C(=O)NS(=O)(=O)c5ccncc5)csc34)c(=O)c2c1C#N)C1CCN(C2COC2)CC1 [compound 1740] | 12.6 |
| CCN(c1ncc2nc(C)n(CC#Cc3ccc(Cl)cc3-c3ccnc4c(C(=O)NS(=O)(=O)c5cccnc5)csc34)c(=O)c2c1C#N)C1CCN(C2COC2)CC1 [compound 1741] | 11 |
| CCN(c1ncc2nc(C)n(CC#Cc3ccc(Cl)cc3-c3ccnc4c(C(=O)NS(=O)(=O)c5ccccn5)csc34)c(=O)c2c1C#N)C1CCN(C2COC2)CC1 [compound 1742] | 5.43 |
| CCN(c1ncc2nc(C)n(CC#Cc3ccc(Cl)cc3-c3ccnc4c(C(=O)NS(=O)(=O)C(F)(F)F)csc34)c(=O)c2c1C#N)C1CCN(C2COC2)CC1 [compound 1744] | 11.5 |
| CCN(c1ncc2nc(C)n(CC#Cc3ccc(Cl)cc3-c3ccnc4c(C(=O)NS(=O)(=O)CC(F)F)csc34)c(=O)c2c1C#N)C1CCN(C2COC2)CC1 [compound 1745] | 11 |
| CCN(c1ncc2nc(C)n(CC#Cc3ccc(Cl)cc3-c3ccnc4c(C(=O)NS(=O)(=O)C(C)C)csc34)c(=O)c2c1C#N)C1CCN(C2COC2)CC1 [compound 1746] | 10.8 |
| CCN(c1ncc2nc(C)n(CC#Cc3ccc(Cl)cc3-c3ccnc4c(C(=O)NS(=O)(=O)C(C)(C)C)csc34)c(=O)c2c1C#N)C1CCN(C2COC2)CC1 [compound 1747] | 16.5 |
| CCN(c1ncc2nc(C)n(CC#Cc3ccc(Cl)cc3-c3ccnc4c(C(=O)NS(=O)(=O)C5CCC5)csc34)c(=O)c2c1C#N)C1CCN(C2COC2)CC1 [compound 1748] | 17.5 |
| CCN(c1ncc2nc(C)n(CC#Cc3ccc(Cl)cc3-c3ccnc4c(C(=O)NS(=O)(=O)C5CC5)csc34)c(=O)c2c1C#N)C1CCN(C2COC2)CC1 [compound 1749] | 16.4 |
| CCN(c1ncc2nc(C)n(CC#Cc3ccc(Cl)cc3-c3ccnc4c(C(=O)NS(=O)(=O)C5COC5)csc34)c(=O)c2c1C#N)C1CCN(C2COC2)CC1 [compound 1750] | 16.1 |
| Cc1nc2cnc(N(C)C3CCN([C@H]4C[C@H](OC(F)F)C4)CC3)c(C#N)c2c(=O)n1CC#Cc1ccc(Cl)cc1-c1ccnc2c(C(=O)NS(C)(=O)=O)csc12 [compound 1761] | 5.65 |
| Cc1nc2cnc(N(C)C3CCN([C@H]4C[C@H](OC(F)F)C4)CC3)c(C#N)c2c(=O)n1CC#Cc1ccc(Cl)cc1-c1ccnc2c(C(=O)NS(=O)(=O)C3COC3)csc12 [compound 1762] | 25 |
| Cc1nc2cnc(N(C)C3CCN([C@H]4C[C@H](OC(F)F)C4)CC3)c(C#N)c2c(=O)n1CC#Cc1ccc(Cl)cc1-c1ccnc2c(C(=O)NS(=O)(=O)c3ccccn3)csc12 [compound 1763] | 23.3 |
| Cc1nc2cnc(N(C)C3CCN([C@H]4C[C@H](OC(F)F)C4)CC3)c(C#N)c2c(=O)n1CC#Cc1ccc(Cl)cc1-c1ccnc2c(C(=O)NS(=O)(=O)c3ccncc3)csc12 [compound 1764] | 19 |
| Cc1nc2cnc(N(C)C3CCN([C@H]4C[C@H](OC(F)F)C4)CC3)c(C#N)c2c(=O)n1CC#Cc1ccc(Cl)cc1-c1ccnc2c(C(=O)NS(=O)(=O)c3cccnc3)csc12 [compound 1765] | 12.3 |
